The assay has as its target T1, KCNQ2/3 channels (Homo sapiens, UniProt O43525+O43526).
T1 construct: expressed in transfected cells; host or cells: CHO-K1
The assay can be described thus: Fluorescence assay using a voltage sensitive dye (fluorimetry). The class given is cell-based. The note with it: CHO-K1 cells expressing KCNQ2/3 channels; for Emax: relative to retigabine = 100%, read-out: Fluorimetry % efficacy (retigabine = 100%). The procedure:
Method I. Fluorescence Assay Using a Voltage Sensitive Dye (Fluorimetry)
[…] CHO-K1 cells expressing KCNQ2/3 channels are cultivated adherently at 37° C., 5% CO2 and 95% humidity in cell culture bottles (e.g. 80 cm^2 TC flasks, Nunc) with DMEM-high glucose (Sigma Aldrich, D7777) including 10% FCS (PAN Biotech, e.g. 3302-P270521) or alternatively MEM Alpha Medium (1×, liquid, Invitrogen, #22571), 10% fetal calf serum (FCS) (Invitrogen, #10270-106, heat-inactivated) and the necessary selection antibiotics.
Before being sown out for the measurements, the cells are washed with 1×DPBS buffer Ca^2+/Mg^2+-free (e.g. Invitrogen, #14190-094) and detached from the bottom of the culture vessel by using Accutase (PAA Laboratories, #L11-007) (incubation with Accutase for 15 min at 37° C.). The cell number is determined using a CASY™ cell counter (TCC, Schärfe System). Depending on the optimal density for each individual cell line, 20,000-30,000 cells/well/100 μl are seeded onto 96-well Corning™ CellBIND™ assay plates (Flat Clear Bottom Black Polystyrene Microplates, #3340). Freshly seeded cells are then left to settle for one hour at room temperature, followed by incubation for 24 hours at 37° C., 5% CO2 and 95% humidity.
The voltage-sensitive fluorescent dye from the Membrane Potential Assay Kit (Red™ Bulk format part R8123 for FLIPR, MDS Analytical Technologies™) is prepared by dissolving the contents of one vessel Membrane Potential Assay Kit Red Component A in 200 ml of extracellular buffer (ES buffer, 120 mM NaCl, 1 mM KCl, 10 mM HEPES, 2 mM CaCl2, 2 mM MgCl2, 10 mM glucose; pH 7.4). After removal of the nutrient medium, the cells are washed once with 200 μl of ES buffer, then loaded for 45 min at room temperature in 100 μl of dye solution in the dark.
Fluorescence measurements are carried out in a BMG Labtech FLUOstar™, BMG Labtech NOVOstar™ or BMG Labtech POLARstar™ instrument (525 nm excitation, 560 nm emission, Bottom Read mode). After incubation with the dye, 50 μl of the test substances in the desired concentrations, or 50 μl of ES buffer for control purposes, are applied to the wells of the assay plate and incubated for 30 min at room temperature while being shielded from light. The fluorescence intensity of the dye is then measured for 5 min and the fluorescence value F1 of each well is thus determined at a given, constant time. 15 μl of a KCl solution are then added to each well (final concentration of potassium ions 92 mM). The change in fluorescence intensity is subsequently monitored until all the relevant values have been obtained (mainly 5-30 min). At a given time post KCl application, a fluorescence value F2 is determined, in this case at the time of the fluorescence peak.
For calculation, the fluorescence intensity F2 is corrected for the fluorescence intensity F1, and the activity (ΔF/F) of the target compound on the potassium channel is determined as follows:
In order to determine whether a substance has agonistic activity,
[formula] can be related to
[formula] of control wells.
[formula] is determined by adding to the well only the buffer solution instead of the test substance, determining the value F1K of the fluorescence intensity, adding the potassium ions as described above, and measuring a value F2K of the fluorescence intensity. F2K and F1K are then calculated as follows: […]
A substance has an agonistic activity on the potassium channel if
[formula] is greater than
Independently of the comparison of
[formula] it is possible to conclude that a target compound has agonistic activity if
[formula] increases dose dependently.
Calculations of EC50 and IC50 values are carried out with the aid of ‘Prism v4.0’ software (Graph Pad Software™).

pEC50: −log10 of the molar value.

In the case of `COc1nc2cc(C(F)(F)F)ccc2c(C)c1C(=O)NCCC(C)(C)C` [Example 1, N-(3,3-dimethyl-butyl)-2-methoxy-4-methyl-7-(trifluoromethyl)-quinoline-3-carboxylic acid amide], the Emax worked out at 57%.

On to `CCOc1nc2cc(C(F)(F)F)ccc2c(C)c1C(=O)NCc1cccs1` [Example 2, 2-ethoxy-4-methyl-N-(thiophene-2-yl-methyl)-7-(trifluoromethyl)-quinoline-3-carboxylic acid amide], for which the pEC50 is 7.19 and the Emax was 175%. For the compound `Cc1c(C(=O)NCc2cccc(F)c2)c(OCCO)nc2cc(C(F)(F)F)ccc12` [Example 9, N-[(3-fluorophenyl)-methyl]-2-(2-hydroxy-ethoxy)-4-methyl-7-(trifluoromethyl)-quinoline-3-carboxylic acid amide], the pEC50 was 6.41 and the Emax is 119%.

In the case of `Cc1c(C(=O)NCc2ccc(F)cc2)c(OC(C)C)nc2cc(C(F)(F)F)ccc12` [Example 11, N-[(4-fluorophenyl)-methyl]-2-isopropoxy-4-methyl-7-(trifluoromethyl)-quinoline-3-carboxylic acid amide], the pEC50 was 7.28 and the Emax is 164%. As to `CCOc1nc2cc(C(F)(F)F)ccc2c(OC)c1C(=O)NCc1ccc(F)cc1` [Example 14, 2-ethoxy-N-[(4-fluorophenyl)-methyl]-4-methoxy-7-(trifluoromethyl)-quinoline-3-carboxylic acid amide], the pEC50 is 7.12 and the Emax worked out at 155%. Take `CCOc1nc2cc(F)c(F)cc2c(OC)c1C(=O)NCc1cccc(F)c1` [Example 15, 2-ethoxy-6,7-difluoro-N-[(3-fluorophenyl)-methyl]-4-methoxy-quinoline-3-carboxylic acid amide]: the pEC50 was 6.97 and the Emax is 181%.

Take `COc1nc2cc(F)c(F)cc2c(OC)c1C(=O)NCc1cccc(F)c1` [Example 17, 6,7-difluoro-N-[(3-fluorophenyl)-methyl]-2,4-dimethoxy-quinoline-3-carboxylic acid amide]: the pEC50 is 6.66 and the Emax amounted to 147%.

`COc1nc2cc(F)ccc2c(C)c1C(=O)NCc1cccc(F)c1` [Example 18, 7-fluoro-N-[(3-fluorophenyl)-methyl]-2-methoxy-4-methyl-quinoline-3-carboxylic acid amide]: the pEC50 was 6.47 and the Emax is 62%. For `COc1nc2cc(C(F)(F)F)ccc2c(C)c1C(=O)NCc1ccc(C)c(F)c1` [Example 19, N-[(3-fluoro-4-methyl-phenyl)-methyl]-2-methoxy-4-methyl-7-(trifluoromethyl)-quinoline-3-carboxylic acid amide], the pEC50 is 7.04 and the Emax was found to be 99%. As to `COc1nc2cc(C(F)(F)F)ccc2c(C)c1C(=O)NCc1cccc(C)c1` [Example 21, 2-methoxy-4-methyl-N-(m-tolyl-methyl)-7-(trifluoromethyl)-quinoline-3-carboxylic acid amide], the pEC50 was 7.17 and the Emax came out at 71%. Turning to `COc1nc2cc(C(F)(F)F)ccc2c(C)c1C(=O)NCc1ccc(F)c(C)c1` [Example 23, N-[(4-fluoro-3-methyl-phenyl)-methyl]-2-methoxy-4-methyl-7-(trifluoromethyl)-quinoline-3-carboxylic acid amide], the pEC50 was 7.21 and the Emax came to 73%. Taken in the same sequence, the figures for `COc1nc2cc(C(F)(F)F)ccc2c(C)c1C(=O)NCc1ccc(C)cc1` [Example 25, 2-methoxy-4-methyl-N-(p-tolyl-methyl)-7-(trifluoromethyl)-quinoline-3-carboxylic acid amide] were 6.74 and 96%. Consider `CCOc1nc2cc(C(F)(F)F)ccc2c(C)c1C(=O)NCc1ccc(C)cc1` [Example 26, 2-ethoxy-4-methyl-N-(p-tolyl-methyl)-7-(trifluoromethyl)-quinoline-3-carboxylic acid amide], for which the pEC50 is 6.88 and the Emax came out at 117%. As to `CCOc1nc2cc(C(F)(F)F)ccc2c(C)c1C(=O)NCCCC(C)C` [Example 27, 2-ethoxy-4-methyl-N-(4-methyl-pentyl)-7-(trifluoromethyl)-quinoline-3-carboxylic acid amide], the pEC50 was 7.08 and the Emax turned out to be 173%.

Turning to `COc1nc2cc(C(F)(F)F)ccc2c(C)c1C(=O)NCCCC(C)C` [Example 28, 2-methoxy-4-methyl-N-(4-methyl-pentyl)-7-(trifluoromethyl)-quinoline-3-carboxylic acid amide], the pEC50 was 7.09 and the Emax was found to be 184%. As for `CCOc1nc2cc(C(F)(F)F)ccc2c(C)c1C(=O)NCCCC(C)(C)C` [Example 30, N-(4,4-dimethyl-pentyl)-2-ethoxy-4-methyl-7-(trifluoromethyl)-quinoline-3-carboxylic acid amide], the pEC50 is 7.30 and the Emax is 214%. Regarding `CCOc1nc2cc(C#N)ccc2c(C)c1C(=O)NCc1cccc(F)c1` [Example 36, 7-cyano-2-ethoxy-N-[(3-fluorophenyl)-methyl]-4-methyl-quinoline-3-carboxylic acid amide], the negative-log EC50 (pEC50) is 7.25 and the Emax stood at 105%. As for `COc1nc2cc(C#N)ccc2c(C)c1C(=O)NCc1cccc(F)c1` [Example 37, 7-cyano-N-[(3-fluorophenyl)-methyl]-2-methoxy-4-methyl-quinoline-3-carboxylic acid amide], the negative-log EC50 (pEC50) was 6.58 and the Emax came to 85%. As for `COc1nc2cc(C#N)ccc2c(C)c1C(=O)NCc1ccc(F)cc1` [Example 38, 7-cyano-N-[(4-fluorophenyl)-methyl]-2-methoxy-4-methyl-quinoline-3-carboxylic acid amide], the pEC50 is 6.84 and the Emax stood at 74%.

`COc1nc2cc(C(F)(F)F)ccc2c(C)c1C(=O)NCc1cccc(F)c1OC` [Example 39, N-[(3-fluoro-2-methoxy-phenyl)-methyl]-2-methoxy-4-methyl-7-(trifluoromethyl)-quinoline-3-carboxylic acid amide]: the Emax was determined as 10%. For `COc1cc(F)cc(CNC(=O)c2c(OC)nc3cc(C(F)(F)F)ccc3c2C)c1` [Example 40, N-[(3-fluoro-5-methoxy-phenyl)-methyl]-2-methoxy-4-methyl-7-(trifluoromethyl)-quinoline-3-carboxylic acid amide], the Emax is 15%. As for `COc1ccc(F)cc1CNC(=O)c1c(OC)nc2cc(C(F)(F)F)ccc2c1C` [Example 41, N-[(5-fluoro-2-methoxy-phenyl)-methyl]-2-methoxy-4-methyl-7-(trifluoromethyl)-quinoline-3-carboxylic acid amide], the pEC50 was 5.81 and the Emax was 140%.

Turning to `COc1nc2cc(C(F)(F)F)ccc2c(C)c1C(=O)NCc1cccc(F)c1O` [Example 42, N-[(3-fluoro-2-hydroxy-phenyl)-methyl]-2-methoxy-4-methyl-7-(trifluoromethyl)-quinoline-3-carboxylic acid amide], the pEC50 was 6.91 and the Emax was 137%. Take `COc1nc2cc(C(F)(F)F)ccc2c(C)c1C(=O)NCc1cc(O)cc(F)c1` [Example 43, N-[(3-fluoro-5-hydroxy-phenyl)-methyl]-2-methoxy-4-methyl-7-(trifluoromethyl)-quinoline-3-carboxylic acid amide]: the Emax came out at 9%.

As usually defined, the pEC50 is the EC50 on a negative log10 scale, so that one unit is a factor of ten.

(Values after patent publication US9073862B2, “Substituted 2-oxy-quinoline-3-carboxamides as KCNQ2/3 modulators” (Grünenthal GmbH, priority 2010, dated 2015).)
